Where “and” joins values, the source holds several entries; their conditions need not be identical. Equal values may be shown once. Toxic doses and inconclusive results are not listed.
Tested on: BDF1 mice, P388 leukemia (terephthalanilide-resistant), survival T/C
Experiment: NCI In Vivo Anticancer Drug Screen. Data for tumor model P388 Leukemia resistant to A Terephthalanilide; NSC 38280 (intraperitoneal) in B6D2F1 (BDF1) mice
Conditions: endpoint: median survival time, schedule: Q01DX010 (ip), higher = longer survival
Procedure: The antitumor activity of compounds was measured in mice bearing transplantable tumors. Survival or tumor size were measured and the results are expressed as the measurement made in the treated group (T) divided by the measurement made in the vehicle treated control group (C). The tumor model used in this assay is P388 Leukemia resistant to A Terephthalanilide; NSC 38280 (intraperitoneal) in B6D2F1 (BDF1) mice

[1] = dose: 5.0 mg/kg/injection, vehicle: saline
[2] = dose: 10.0 mg/kg/injection, vehicle: saline
[3] = dose: 20.0 mg/kg/injection, vehicle: saline
[4] = dose: 40.0 mg/kg/injection, vehicle: saline
[5] = dose: 15.0 mg/kg/injection, vehicle: saline
[6] = dose: 30.0 mg/kg/injection, vehicle: saline
[7] = dose: 60.0 mg/kg/injection, vehicle: saline
[8] = dose: 80.0 mg/kg/injection, vehicle: saline
[9] = dose: 160.0 mg/kg/injection, vehicle: saline
[10] = dose: 3.0 mg/kg/injection, vehicle: saline
[11] = dose: 6.0 mg/kg/injection, vehicle: saline
[12] = dose: 12.0 mg/kg/injection, vehicle: saline
[13] = dose: 62.5 mg/kg/injection, vehicle: saline
[14] = dose: 125.0 mg/kg/injection, vehicle: saline
[15] = dose: 250.0 mg/kg/injection, vehicle: saline
[16] = dose: 13.3 mg/kg/injection, vehicle: saline
[17] = dose: 18.0 mg/kg/injection, vehicle: saline
[18] = dose: 27.0 mg/kg/injection, vehicle: saline
[19] = dose: 3.13 mg/kg/injection, vehicle: saline
[20] = dose: 6.25 mg/kg/injection, vehicle: saline
[21] = dose: 12.5 mg/kg/injection, vehicle: saline
[22] = dose: 25.0 mg/kg/injection, vehicle: saline
[23] = dose: 75.0 mg/kg/injection, vehicle: saline
[24] = dose: 50.0 mg/kg/injection, vehicle: saline
[25] = dose: 16.0 mg/kg/injection, vehicle: saline
[26] = dose: 32.0 mg/kg/injection, vehicle: saline

SMILES: NC(Cc1ccc(N(CCCl)CCCl)cc1)C(=O)O (stereo not drawn)
- T/C (dose: 2.0 mg/kg/injection, vehicle: other): 163 % of control
- T/C (dose: 4.0 mg/kg/injection, vehicle: other): 100 % of control

SMILES: O=c1cnn(C2OC(CO)C(O)C2O)c(=O)[nH]1 (stereo not drawn)
- T/C (dose: 800.0 mg/kg/injection, vehicle: saline): 120 % of control
- T/C (dose: 1600.0 mg/kg/injection, vehicle: saline): 110 % of control

SMILES: O=c1[nH]cc(F)c(=O)[nH]1
- T/C [1]: 120 % of control
- T/C [2]: 150 % of control and 183 % of control
- T/C [3]: 170 % of control and 222 % of control
- T/C [4]: 95 % of control and 111 % of control

SMILES: Clc1ncnc2nc[nH]c12
- T/C (dose: 7.5 mg/kg/injection, vehicle: saline): 87 % of control
- T/C [5]: 87 % of control and 93 % of control
- T/C [6]: 87 % of control and 106 % of control
- T/C [7]: 93 % of control

SMILES: OCC1OC(n2cnc3c(=S)nc[nH]c32)C(O)C1O (stereo not drawn)
- T/C [3]: 90 % of control and 111 % of control
- T/C [4]: 100 % of control and 105 % of control
- T/C [8]: 116 % of control
- T/C [9]: 110 % of control

SMILES: Oc1cc(CN(CCCl)CCCl)c(O)cc1CN(CCCl)CCCl
- T/C (dose: 0.63 mg/kg/injection, vehicle: saline): 116 % of control
- T/C (dose: 1.25 mg/kg/injection, vehicle: saline): 100 % of control and 116 % of control
- T/C (dose: 2.5 mg/kg/injection, vehicle: saline): 100 % of control and 116 % of control
- T/C [1]: 100 % of control and 116 % of control
- T/C [2]: 110 % of control

SMILES: Nc1ncnc2[nH]ncc12
- T/C (dose: 1.5 mg/kg/injection, vehicle: saline): 90 % of control and 95 % of control
- T/C [10]: 90 % of control
- T/C [11]: 90 % of control and 95 % of control
- T/C [12]: 90 % of control and 100 % of control

SMILES: CC(=O)N(C)C
- T/C [13]: 90 % of control and 111 % of control
- T/C [14]: 100 % of control
- T/C [15]: 88 % of control
- T/C (dose: 500.0 mg/kg/injection, vehicle: saline): 95 % of control and 100 % of control

SMILES: O=c1[nH]c(=O)n(C2CC(O)C(CO)O2)cc1F (stereo not drawn)
- T/C [1]: 100 % of control
- T/C [2]: 90 % of control and 104 % of control
- T/C [3]: 90 % of control and 113 % of control
- T/C [4]: 104 % of control and 118 % of control
- T/C [8]: 159 % of control

SMILES: CNc1nc(Nc2ccc(C3=NCCN3)cc2)nc(Nc2ccc(C3=NCCN3)cc2)n1
- T/C [16]: 117 % of control
- T/C [3]: 111 % of control
- T/C [6]: 117 % of control

SMILES: CC1CN=C(c2ccc(NC(=O)c3cccc(C(=O)Nc4ccc(C5=NCC(C)N5)cc4)c3)cc2)N1 (stereo not drawn)
- T/C [12]: 100 % of control
- T/C [17]: 100 % of control
- T/C [18]: 100 % of control
- T/C [4]: 88 % of control

SMILES: CN[C@H]1CCc2cc(OC)c(OC)c(OC)c2-c2ccc(OC)c(=O)cc21
- T/C (dose: 0.63 mg/kg/injection, vehicle: other): 94 % of control and 110 % of control
- T/C (dose: 1.25 mg/kg/injection, vehicle: other): 100 % of control and 110 % of control
- T/C (dose: 2.5 mg/kg/injection, vehicle: other): 100 % of control and 120 % of control
- T/C (dose: 5.0 mg/kg/injection, vehicle: other): 88 % of control and 115 % of control

SMILES: O=C1CCC(N2C(=O)c3ccccc3C2=O)C(=O)N1 (stereo not drawn)
- T/C (dose: 31.3 mg/kg/injection, vehicle: saline): 117 % of control
- T/C [13]: 100 % of control and 117 % of control
- T/C [14]: 100 % of control and 105 % of control
- T/C [15]: 90 % of control and 94 % of control

SMILES: CN=C(NC)c1ccc(NC(=O)Nc2ccc(NC(=O)Nc3ccc(C(=NC)NC)cc3)cc2)cc1
- T/C [16]: 111 % of control
- T/C [3]: 94 % of control
- T/C [6]: 111 % of control

SMILES: N=C(N)c1ccc(Nc2ccc(C(=N)N)cc2)cc1
- T/C [10]: 105 % of control
- T/C [11]: 100 % of control
- T/C [12]: 90 % of control

SMILES: CCCNc1ncnc2[nH]ncc12
- T/C [19]: 95 % of control and 105 % of control
- T/C [20]: 100 % of control
- T/C [21]: 90 % of control and 94 % of control
- T/C [22]: 110 % of control
- T/C [15]: 111 % of control

SMILES: N#CCSc1ncnc2nc[nH]c12
- T/C [5]: 100 % of control
- T/C [6]: 100 % of control
- T/C [7]: 105 % of control and 109 % of control
- T/C (dose: 120.0 mg/kg/injection, vehicle: saline): 100 % of control

SMILES: O=C(Nc1ccc(C2=NCCN2)cc1)c1ccc(C(=O)Nc2ccc(C3=NCCN3)cc2)cc1
- T/C [23]: 116 % of control
- T/C (dose: 167.0 mg/kg/injection, vehicle: saline): 122 % of control

SMILES: O=C(Nc1cccc(NC(=O)Nc2cccc(C3=NCCN3)c2)c1)Nc1cccc(C2=NCCN2)c1
- T/C [18]: 111 % of control
- T/C [4]: 111 % of control
- T/C (dose: 66.0 mg/kg/injection, vehicle: saline): 111 % of control
- T/C (dose: 90.0 mg/kg/injection, vehicle: saline): 111 % of control

SMILES: O=C(Nc1cccc(C(=O)Nc2ccc(C3=NCCN3)cc2)c1)c1ccc(C2=NCCN2)cc1
- T/C (dose: 54.0 mg/kg/injection, vehicle: saline): 117 % of control

SMILES: CS(=O)(=O)OCCCl
- T/C (dose: 18.8 mg/kg/injection, vehicle: saline): 105 % of control
- T/C (dose: 37.5 mg/kg/injection, vehicle: saline): 110 % of control and 111 % of control
- T/C [23]: 111 % of control and 115 % of control
- T/C (dose: 150.0 mg/kg/injection, vehicle: saline): 110 % of control and 122 % of control

SMILES: CC(=O)Nc1ccc2nc3ccc(NC(C)=O)cc3[n+](-c3ccccc3)c2c1
- T/C (dose: 7.8 mg/kg/injection, vehicle: saline): 90 % of control
- T/C (dose: 15.6 mg/kg/injection, vehicle: saline): 90 % of control

SMILES: C[n+]1c2ccccc2nc2c(N)cc(N)cc21
- T/C [12]: 100 % of control
- T/C [17]: 100 % of control
- T/C [18]: 91 % of control

SMILES: CC1CN=C(c2ccc(NC(=O)c3ccc(C(=O)Nc4ccc(C5=NCC(C)N5)cc4)cc3)cc2)N1 (stereo not drawn)
- T/C [2]: 111 % of control
- T/C [5]: 111 % of control
- T/C (dose: 22.0 mg/kg/injection, vehicle: saline): 111 % of control
- T/C (dose: 33.0 mg/kg/injection, vehicle: saline): 111 % of control

SMILES: Cn1c(N)nc2nc[nH]c2c1=S
- T/C [3]: 100 % of control
- T/C [4]: 100 % of control
- T/C [8]: 95 % of control
- T/C [9]: 90 % of control

SMILES: O=C(Nc1ccc(C2=NCCN2)cc1)c1ccc(C(=O)Nc2ccc(C3=NCCN3)cc2)c(NC(=O)c2ccc(C(=O)Nc3cc(C(=O)Nc4ccc(C5=NCCN5)cc4)ccc3C(=O)Nc3ccc(C4=NCCN4)cc3)cc2)c1
- T/C [22]: 100 % of control
- T/C [24]: 94 % of control
- T/C (dose: 100.0 mg/kg/injection, vehicle: saline): 94 % of control
- T/C (dose: 200.0 mg/kg/injection, vehicle: saline): 100 % of control

SMILES: CS(=O)(=O)OCCCCOS(C)(=O)=O
- T/C [20]: 87 % of control and 100 % of control
- T/C [21]: 100 % of control and 106 % of control
- T/C [22]: 87 % of control and 100 % of control
- T/C [24]: 106 % of control

SMILES: O=C(O)CCCc1ccc(N(CCCl)CCCl)cc1
- T/C [19]: 100 % of control and 105 % of control
- T/C [20]: 110 % of control and 116 % of control
- T/C [21]: 105 % of control and 120 % of control

SMILES: CS(=O)(=O)OCCN(CCOS(C)(=O)=O)c1ccc(N=O)cc1
- T/C (dose: 0.5 mg/kg/injection, vehicle: saline): 100 % of control
- T/C (dose: 1.0 mg/kg/injection, vehicle: saline): 109 % of control
- T/C (dose: 2.0 mg/kg/injection, vehicle: saline): 109 % of control and 113 % of control

SMILES: c1ccc(CNc2ncnc3[nH]ncc23)cc1
- T/C (dose: 8.0 mg/kg/injection, vehicle: saline): 90 % of control
- T/C [25]: 90 % of control and 95 % of control
- T/C [26]: 90 % of control and 100 % of control
- T/C (dose: 64.0 mg/kg/injection, vehicle: saline): 90 % of control and 105 % of control

SMILES: CCCCn1cnc2c(=S)nc[nH]c21
- T/C [25]: 86 % of control
- T/C [26]: 90 % of control
